# Reference: PubChem BioAssay (NCI)
#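 Each compound was tested at five concentrations against cells in 96-well plates for 48 hours. At the TGI there is no net growth.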
# Tested on: DU-145 prostate
# Assay: NCI tumour cell line growth inhibition, 48 h
smiles,measurement,value
C/C=C(/C)C(=O)O[C@@H]1c2c(C)coc2C[C@H]2CC[C@H](O)[C@H](C)[C@]21C,TGI,> 100 µM
